# Laboratory results published in ChEMBL document CHEMBL5030530, “Design, synthesis, and cholinesterase inhibition assay of liquiritigenin derivatives as anti-Alzheimer's activity” (Bioorg Med Chem Lett, 2021).
# pIC50: −log10 of the molar value.
# Legend:
# [1] = molecular target: Acetylcholinesterase (Electrophorus electricus, UniProt O42275); assay: Inhibition of electric eel AChE using acetylthiocholine iodide as substrate incubated for 15 to 20 mins by Ellman's method
# [2] = Selectivity index, ratio of IC50 for equine serum BuChE using butyrylthiocholine chloride as substrate to IC50 for electric eel AChE using acetylthiocholine iodide as substrate incubated for 15 to 20 mins by Ellman's method; conditions: time 15-20 min
# [3] = molecular target: Cholinesterase (Equus caballus, UniProt P81908); assay: Inhibition of equine serum BuChE using butyrylthiocholine chloride as substrate incubated for 15 to 20 mins by Ellman's method; type: cell-free
# [4] = Antioxidant activity assessed as ABTS radical scavenging activity; type: functional
# Sequence of Acetylcholinesterase (O42275 whole entry): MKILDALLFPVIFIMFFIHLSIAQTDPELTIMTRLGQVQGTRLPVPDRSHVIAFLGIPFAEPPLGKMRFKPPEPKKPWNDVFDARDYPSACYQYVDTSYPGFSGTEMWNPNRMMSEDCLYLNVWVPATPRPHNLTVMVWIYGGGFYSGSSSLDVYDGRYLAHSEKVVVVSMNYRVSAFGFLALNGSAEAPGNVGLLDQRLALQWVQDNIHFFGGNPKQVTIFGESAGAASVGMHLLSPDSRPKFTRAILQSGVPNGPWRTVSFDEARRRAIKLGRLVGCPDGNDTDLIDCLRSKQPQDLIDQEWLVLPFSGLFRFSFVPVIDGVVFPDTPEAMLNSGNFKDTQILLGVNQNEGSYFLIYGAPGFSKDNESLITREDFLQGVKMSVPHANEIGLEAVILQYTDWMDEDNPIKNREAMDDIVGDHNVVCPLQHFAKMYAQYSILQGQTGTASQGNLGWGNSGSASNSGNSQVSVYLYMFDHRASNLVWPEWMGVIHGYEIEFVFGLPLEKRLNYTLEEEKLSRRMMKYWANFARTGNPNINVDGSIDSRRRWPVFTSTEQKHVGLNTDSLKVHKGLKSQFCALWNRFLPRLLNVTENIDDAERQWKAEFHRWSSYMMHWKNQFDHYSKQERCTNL
# Sequence of Cholinesterase (P81908 whole entry): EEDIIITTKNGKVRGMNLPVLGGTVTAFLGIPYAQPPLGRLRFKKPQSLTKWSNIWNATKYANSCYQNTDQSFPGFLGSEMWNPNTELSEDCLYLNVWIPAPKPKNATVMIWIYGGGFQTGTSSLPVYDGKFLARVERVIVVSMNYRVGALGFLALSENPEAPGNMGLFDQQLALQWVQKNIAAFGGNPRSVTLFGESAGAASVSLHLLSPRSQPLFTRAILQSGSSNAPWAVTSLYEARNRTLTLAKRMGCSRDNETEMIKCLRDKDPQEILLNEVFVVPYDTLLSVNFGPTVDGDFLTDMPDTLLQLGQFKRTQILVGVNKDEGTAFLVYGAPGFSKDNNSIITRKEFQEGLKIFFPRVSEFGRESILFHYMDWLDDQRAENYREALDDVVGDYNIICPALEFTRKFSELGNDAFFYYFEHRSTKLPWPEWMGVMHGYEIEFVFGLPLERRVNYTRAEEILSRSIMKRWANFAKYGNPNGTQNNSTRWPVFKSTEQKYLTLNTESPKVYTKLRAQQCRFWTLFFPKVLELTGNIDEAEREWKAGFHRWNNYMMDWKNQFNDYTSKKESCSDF
SMILES,pIC50 [1],Ratio IC50 [2],pIC50 [3],pIC50 [4]
CC(C)=CCOc1cc(O)c2c(c1)OC(c1cccc(Cl)c1)CC2=O (stereo not drawn),6.00,6.89,5.17,5.22
CC(C)=CCOc1ccc2c(c1)OC(c1ccccc1Cl)CC2=O (stereo not drawn),5.50,1.69,5.27,5.10
CC(C)=CCOc1cc(O)c2c(c1)OC(c1ccc(Cl)cc1)CC2=O (stereo not drawn),5.93,6.04,5.15,5.15
O=C1C[C@@H](c2ccc(O)cc2)Oc2cc(O)ccc21 [LIQUIRTIGENIN],5.04,1.55,4.85,5.05
CC(C)=CCOc1cc(O)c2c(c1)OC(c1cccc(F)c1)CC2=O (stereo not drawn),6.04,5.53,5.29,5.14
CC(C)=CCOc1cc(O)c2c(c1)OC(c1ccc(O)cc1)CC2=O (stereo not drawn),5.63,2.27,5.27,5.27
CC(C)=CCOc1cc(O)c2c(c1)OC(c1ccccc1)CC2=O (stereo not drawn),5.52,2.15,5.18,5.14
CC(C)=CCOc1ccc2c(c1)OC(c1cccc(F)c1)CC2=O (stereo not drawn),5.83,2.72,5.40,5.37
CC(C)=CCOc1cc(O)c2c(c1)OC(c1ccccc1Cl)CC2=O (stereo not drawn),5.67,3.52,5.12,5.37
CC(C)=CCOc1ccc2c(c1)OC(c1ccc(F)cc1)CC2=O (stereo not drawn),6.26,4.69,5.59,5.14
CC(C)=CCOc1cc(O)c2c(c1)OC(c1ccccc1Br)CC2=O (stereo not drawn),5.93,3.28,5.41,5.42
CC(C)=CCOc1cc(O)c2c(c1)OC(c1ccc(C)cc1)CC2=O (stereo not drawn),6.00,6.54,5.18,5.36
CC(C)=CCOc1ccc2c(c1)OC(c1ccc(O)cc1)CC2=O (stereo not drawn),5.51,1.62,5.30,5.18
CC(C)=CCOc1ccc2c(c1)OC(c1ccc(Cl)cc1Cl)CC2=O (stereo not drawn),5.88,2.61,5.46,5.28
CC(C)=CCOc1ccc2c(c1)OC(c1ccccc1Br)CC2=O (stereo not drawn),5.69,2.49,5.30,5.50
CC(C)=CCOc1cc(O)c2c(c1)OC(c1ccc(C)cc1C)CC2=O (stereo not drawn),6.14,5.44,5.41,5.20
CC(C)=CCOc1ccc2c(c1)OC(c1ccc(C)cc1)CC2=O (stereo not drawn),5.95,3.65,5.39,5.35
